Laboratory results: ChEMBL document CHEMBL4265923, “In vitro and in vivo characterization of a novel, highly potent p53-MDM2 inhibitor” (Bioorg Med Chem Lett, 2018)

Legend:
[1] = Half life in rat liver microsomes; format: ADME, microsome
[2] = Intrinsic clearance in rat liver microsomes; format: ADME, microsome
[3] = system: SJSA-1; assay: Antiproliferative activity against human SJSA1 cells after 72 hrs by YO-PRO-1 iodide staining-based assay; format: functional; conditions: SJSA-1, 72 h
[4] = Half life in human liver microsomes; format: ADME, microsome
[5] = system: Rattus norvegicus; assay: Dose normalized Cmax in Sprague-Dawley rat at 3 mg/kg, po; format: ADME, organism-based; conditions: in vivo
[6] = system: Rattus norvegicus; assay: Upregulation of p21 mRNA expression level in po dosed nude rat tumor xenografted with human SJSA1 cells by RT-PCR method
[7] = Fraction absorbed of compound by PAMPA; format: ADME
[8] = Half life in dog liver microsomes; format: ADME, Canis lupus familiaris, microsome
[9] = Volume of distribution at steady state in Sprague-Dawley rat at 1 mg/kg, iv; format: ADME, organism-based; conditions: in vivo, read-out: Vdss
[10] = Intrinsic clearance in human liver microsomes; format: ADME, microsome
[11] = Intrinsic clearance in mouse liver microsomes; format: ADME, microsome
[12] = Oral bioavailability in Sprague-Dawley rat at 3 mg/kg; format: ADME, organism-based; conditions: in vivo
[13] = system: Rattus norvegicus; assay: Toxicity in nude rat xenografted with human SJSA1 cells assessed as increase in body weight at 1 to 5 mg/kg, po qd for 14 days; format: organism-based; conditions: in vivo, 336 h
[14] = Intrinsic clearance in monkey liver microsomes; format: ADME, Macaca mulatta, microsome; conditions: rhesus monkey
[15] = system: SJSA-1; assay: Antitumor activity against human SJSA1 cells xenografted in nude rat assessed as reduction in tumor volume at 1 mg/kg, po qd for 14 days; format: functional; set-up: scale not given: the % may be the effect or the level left
[16] = system: Rattus norvegicus; assay: Dose normalized AUC in Sprague-Dawley rat at 1 mg/kg, iv; format: ADME, organism-based; conditions: in vivo
[17] = Intrinsic clearance in dog liver microsomes; format: ADME, Canis lupus familiaris, microsome
[18] = Half life in mouse liver microsomes; format: ADME, microsome
[19] = Tmax in Sprague-Dawley rat at 3 mg/kg, po; format: ADME, organism-based; conditions: in vivo
[20] = Clearance in Sprague-Dawley rat at 1 mg/kg, iv; format: ADME, organism-based; conditions: in vivo
[21] = system: Rattus norvegicus; assay: Upregulation of MDM2 mRNA expression level in po dosed nude rat tumor xenografted with human SJSA1 cells by RT-PCR method
[22] = Tmax in nude rat xenografted with human SJSA1 cells at 1 to 5 mg/kg, po qd; format: ADME, organism-based; conditions: in vivo
[23] = Half life in monkey liver microsomes; format: ADME, Macaca mulatta, microsome; conditions: rhesus monkey
[24] = Half life in Sprague-Dawley rat at 1 mg/kg, iv; format: ADME, organism-based; conditions: in vivo
[25] = system: Rattus norvegicus; assay: Upregulation of PUMA mRNA expression level in po dosed nude rat tumor xenografted with human SJSA1 cells by RT-PCR method
[26] = system: Rattus norvegicus; assay: Dose normalized AUC in Sprague-Dawley rat at 3 mg/kg, po; format: ADME, organism-based; conditions: in vivo
[27] = system: SJSA-1; assay: Antitumor activity against human SJSA1 cells xenografted in po dosed nude rat assessed as tumor growth inhibition administered once daily for 14 days; format: functional, organism-based
[28] = system: SJSA-1; assay: Antitumor activity against human SJSA1 cells xenografted in nude rat assessed as tumor regression at 3 mg/kg, po qd for 14 days; format: functional
[29] = system: SJSA-1; assay: Antitumor activity against human SJSA1 cells xenografted in nude rat assessed as tumor regression at 5 mg/kg, po qd for 14 days; format: functional

COc1cccc(F)c1-c1nc2c(n1C(C)C)C(c1ccc(Cl)cc1C)N(c1cc(Cl)ccc1C)C2=O (racemic)
half-life [1]: 3.3 min | CLint [2]: 450 µL/min/mg | GI50 [3]: 276 nM

COc1ncncc1-c1nc2c(n1C(C)C)C(c1ccc(Cl)cc1C)N(c1cc(Cl)ccc1C)C2=O (racemic)
half-life [1]: 8 min | CLint [2]: 178 µL/min/mg | GI50 [3]: 111 nM

COc1ncc(-c2nc3c(n2C(C)C)[C@@H](c2ccc(Cl)cc2C)N(c2cc(Cl)ccc2C)C3=O)c(OC)n1
half-life [1]: 56 min | CLint [2]: 25 µL/min/mg | GI50 [3]: 1000 nM

COc1ccncc1-c1nc2c(n1C(C)C)[C@H](c1ccc(Cl)cc1C)N(c1cc(Cl)ccc1C)C2=O
half-life [1]: 12 min | CLint [2]: 117 µL/min/mg | GI50 [3]: 345 nM

COc1ncc(-c2nc3c(n2C(C)C)[C@H](c2ccc(Cl)cc2C)N(c2cc(Cl)ccc2C)C3=O)c(OC)n1
half-life [4]: 17 min | Cmax/dose [5]: 75 nM/(mg/kg) | Activity [6]: Dose-dependent effect | Fa [7]: 99% | half-life [8]: 40 min | Vd [9]: 4.4 L/kg | CLH [10]: 72 µL/min/mg | CLH [11]: 36 µL/min/mg | half-life [1]: 39 min | bioavailability [12]: 67% | Activity [13]: Non-Toxic | CLH [14]: 20 µL/min/mg | Activity [15]: 40% | AUC/dose [16]: 1080 nM·h | CLH [17]: 35 µL/min/mg | half-life [18]: 39 min | Tmax [19]: 120 min | clearance [20]: 32 mL/min/kg | Activity [21]: Dose-dependent effect | Tmax [22]: 180 min | half-life [23]: 81 min | half-life [24]: 108 min | Activity [25]: Dose-dependent effect | AUC/dose [26]: 719 nM·h | TGI [27]: Dose-dependent effect | Activity [28]: 32% | Activity [29]: 98% | CLint [2]: 35 µL/min/mg | GI50 [3]: 11 nM

COc1ccccc1-n1nc2c(c1C(C)C)[C@H](c1ccc(Cl)cc1C)N(c1cc(Cl)ccc1C)C2=O
CLH [10]: 115 µL/min/mg | CLH [11]: 495 µL/min/mg | CLint [2]: 385 µL/min/mg

COc1ccccc1-c1nc2c(n1C(C)C)[C@H](c1ccc(Cl)cc1C)N(c1cc(Cl)ccc1C)C2=O
half-life [1]: 3.6 min | CLint [2]: 385 µL/min/mg | GI50 [3]: 62 to 64 nM

COc1ccc(-c2nc3c(n2C(C)C)C(c2ccc(Cl)cc2C)N(c2cc(Cl)ccc2C)C3=O)c(OC)n1 (racemic)
half-life [1]: 20 min | CLint [2]: 69 µL/min/mg | GI50 [3]: 186 nM

COc1ncc(-c2nc3c(n2C(C)C)C(c2ccc(Cl)cc2C)N(c2cc(Cl)ccc2C)C3=O)c(OC)n1 (racemic)
half-life [1]: 30 min | CLint [2]: 47 µL/min/mg | GI50 [3]: 26 nM

COc1ccccc1-c1cc2c(n1C(C)C)C(c1ccc(Cl)cc1C)N(c1cc(Cl)ccc1C)C2=O (configuration not stated)
GI50 [3]: 216 nM

COc1ccc(F)cc1-c1nc2c(n1C(C)C)C(c1ccc(Cl)cc1C)N(c1cc(Cl)ccc1C)C2=O (racemic)
half-life [1]: 3.3 min | CLint [2]: 460 µL/min/mg | GI50 [3]: 228 nM
